Results on one molecule are retold here after patent US20250381165A1, “Method of Use for Benzofuran Compounds” (Tampa Bay Research Institute, Inc., priority 2024, published 2025).

Molecules are shown by their SMILES.

The target in assay [1] is T1, MHC class I H-2Kb tetramer (Mus musculus, UniProt P01901).
T1 construct: purchased MBL International Corporation TB-7400-K2
The experiment in a line: QuickSwitch tetramer peptide exchange assay, H-2Kb. Format: biochemical, murine. Particulars: p<0.001; p=0.0013.

For assay [2], the system named is splenocytes (B3Z activation). Put plainly: In vivo SIINFEKL loading, splenocytes used ex vivo to activate B3Z. Set-up: species or system C57BL/6NCrl mice. The procedure:
Six- to ten-week-old male and female C57BL/6NCrl mice (Charles River Laboratories, Wilmington MA; cat. no. 027) were used for all animal studies. The mice were maintained in accord with the NIH Guide for the Care and Use of Laboratory Animals. Experimental procedures were performed in accord with research protocols approved by the Tampa Bay Research Institute's Institutional Animal Care and Use Committee. Mice were maintained in an INOVIVE individually ventilated cage system with 3 mice per cage containing 100% virgin wood pulp bedding (Harlan Teklad™, Harlan Sprague Dawley Inc., Indianapolis, IA; cat. n.o 7099). Water and food (Harlan Teklad™; cat. no. 8640) were available ad libitum. The mice were maintained on a cycle of 12 h of light and 12 h of dark in an environment with a temperature of 74-76° […]. and 40-60% humidity. All cages underwent 40 air changes hourly in the negative pressure mode, in accordance with manufacturer's recommendations. Both the intake and exhaust air from the system were filtered through HEPA filters to maintain a clean environment. Stock solutions of BzFβ were solubilized in alkaline water (pH 10) and then sterile filtered through 0.22 µm syringe filters. BzFβ used for iv or im injections was diluted in 0.9% saline (normal saline). The stock solutions of the SIINFEKL peptide were prepared in 1× calcium/magnesium free Dulbecco's phosphate-buffered saline (DPBS; ThermoFisher Scientific, cat. no. 14190144).
Since the oral route of drug delivery is preferred, various doses of BzFβ (1, 2, 4 mg) were administered by oral gavage, immediately following an iv injection of 50 μg SIINFEKL peptide. One-hour post-treatment the blood and spleens from each mouse was collected. […] The cell count was determined using the MUSE cell viability kit (MCH600103) and MUSE Cell Analyzer (Luminex Corp, Austin TX).
One hour later the splenocytes were isolated and immediately tested for peptide loading or used to activate B3Z cells. […] The colorimetric response was allowed to develop for 15-240 min and the OD 560 nm was measured at various time points using a Synergy HTX plate reader. […]

T1 sequence (P01901 22-295 limits assumed): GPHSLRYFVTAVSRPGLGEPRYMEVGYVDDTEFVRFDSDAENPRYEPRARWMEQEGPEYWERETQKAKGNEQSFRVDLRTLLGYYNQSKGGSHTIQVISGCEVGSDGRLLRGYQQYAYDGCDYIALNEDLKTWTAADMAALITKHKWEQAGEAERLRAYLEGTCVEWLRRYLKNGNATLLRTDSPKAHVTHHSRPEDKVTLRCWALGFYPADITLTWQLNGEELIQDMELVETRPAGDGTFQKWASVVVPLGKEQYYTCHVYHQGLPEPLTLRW
T1 sequence (P61769 21-119 partner): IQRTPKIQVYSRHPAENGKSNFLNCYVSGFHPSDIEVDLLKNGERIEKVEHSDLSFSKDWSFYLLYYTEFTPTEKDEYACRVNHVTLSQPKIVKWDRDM

Regarding `O=C(O)/C=C/c1ccc2occc2c1` [BzFβ, (2E)-3-(1-benzofuran-5-yl)prop-2-enoic acid], the “displacing pre-bound peptide versus no exchange factor or provided exchange molecule” value in assay [1] is listed as “significantly better”. In assay [2] (gavage 1 mg, iv 50 μg or im 100 μg after iv 50 μg SIINFEKL, 1 h), the “ability of splenocytes to activate B3Z, three routes” value is given as “successful at enhancing the ability of the splenocytes to activate B3Z”. Moreover, the “B3Z response, comparison of routes” value in assay [2] (iv 50 μg BzFβ) is on record as “greatest response”. For the same molecule, the “B3Z response to splenocytes versus peptide alone” value in assay [2] (oral gavage 1, 2, 4 mg after iv 50 μg SIINFEKL, 1 h) was “significantly greater response”.
